This note sets out measurements from patent US20260272926A1, “HIV-1P ROTEASE INHIBITORS AND USES THEREOF” (Purdue Research Foundation, priority 2023, published 2026).

In one experiment the test system is HIVLAI. Nature of the experiment: antiviral activity in MT-2 human-T-lymphoid cells exposed to HIVLAI. Type of experiment: cell-based, HIV-1. As to the method:
(§1) The ability of the nilotinib subunit, pyridinyl-pyrimidinyl amino benzamides to serve as P2 ligands in the S2 subsite of HIV-1 protease was investigated. The HIV-1 protease inhibitory activity of these compounds was evaluated in an enzyme-inhibitory assay reported by Toth and Marshall. […] We also determined the antiviral activity of these inhibitors in MT-2 human-T-lymphoid cells exposed to HIVLAI. […] We then examined a pyridyl thiazole heterocycle in place of the pyridyl pyrimidinyl scaffold in compounds 5a-d.

The target of a further experiment is T1, HIV-1 protease (Human immunodeficiency virus type 1 group M subtype B, UniProt P04585).
T1 construct: catalytically active dimeric HIV-1 protease
Nature of the experiment: HIV-1 protease enzyme-inhibitory assay (Toth and Marshall). The experiment is classed as biochemical. To be noted: for Ki (nM) / Ki: HIV-1 protease inhibitory activity. As to the method:
as §1

The mark [1] stands for this setting: antiviral, MT-2 cells exposed to HIVLAI, Table 1 and text.
[2] abbreviates: Human immunodeficiency virus 1, MT2, antiviral, MT-2 cells exposed to HIVLAI, Table 1 and text, read-out: IC50.
Setting [3] is: Human immunodeficiency virus 1, MT2, antiviral, MT-2 cells exposed to HIVLAI, Table 2, read-out: IC50.

Where “and” joins values, the source holds several entries; their conditions need not be identical. Equal values may be shown once. Read-outs that look alike come from different tables or passages of the source.

`Cc1ccc(C(=O)N[C@@H](Cc2ccccc2)[C@H](O)CN(CC(C)C)S(=O)(=O)c2ccc3nc(NC4CC4)sc3c2)cc1Nc1cc(-c2cccnc2)ncn1`: the “IC50 (nM)” value in the experiment with HIVLAI (setting [1]) is on record as “Low nM”. For the same compound, the “Ki (nM)” value on HIV-1 protease is “Low nM”.
On to `COc1ccc(S(=O)(=O)N(CC(C)C)C[C@@H](O)[C@H](Cc2ccccc2)NC(=O)c2cccc(Nc3nc(-c4cccnc4)cs3)c2)cc1`, for which, in the experiment with HIVLAI (setting [1]), the “IC50 (nM)” value was “Low nM”. For the same compound, the “Ki (nM)” value at HIV-1 protease is listed as “Low nM”.
Turning to `CC(C)CN(C[C@@H](O)[C@H](Cc1ccccc1)NC(=O)c1cccc(Nc2nc(-c3cccnc3)cs2)c1)S(=O)(=O)c1ccc2nc(NC3CC3)sc2c1`, in the experiment with HIVLAI (setting [1]), the “IC50 (nM)” value was “Low nM”. In addition, the “Ki (nM)” value on HIV-1 protease is “Low nM”.
What is called IC50 is the concentration at which inhibition is half-maximal. As usually defined, the Ki is a measure of affinity in units of concentration, obtained from inhibition or displacement. In the case of `COc1ccc(S(=O)(=O)N(CC(C)C)C[C@@H](O)[C@H](Cc2ccccc2)NC(=O)c2ccc(C)c(Nc3nccc(-c4cccnc4)n3)c2)cc1` [Compound 5a, N-((2S,3R)-3-hydroxy-4-((N-isobutyl-4-methoxyphenyl)sulfonamido)-1-phenylbutan-2-yl)-4-methyl-3-((4-(pyridin-3-yl)pyrimidin-2-yl)amino)benzamide], in the experiment with HIVLAI (setting [2]), the 50% inhibitory concentration (IC50) came out at 154 nM. The compound also came in with a Ki at HIV-1 protease of 0.028 nM. For the same compound, at HIV-1 protease (text b193), the “enzyme inhibitory Ki” value stood at 28 PM.
For `Cc1ccc(C(=O)N[C@@H](Cc2ccccc2)[C@H](O)CN(CC(C)C)S(=O)(=O)c2ccc(N)cc2)cc1Nc1nccc(-c2cccnc2)n1` [Compound 5b, N-((2S,3R)-4-((4-amino-N-isobutylphenyl)sulfonamido)-3-hydroxy-1-phenylbutan-2-yl)-4-methyl-3-((4-(pyridin-3-yl)pyrimidin-2-yl)amino)benzamide], in the experiment with HIVLAI (antiviral, MT-2 cells exposed to HIVLAI, Table 1 and text, read-out: IC50), the IC50 is 66.8 nM. This compound also returned a Ki on HIV-1 protease of 0.17 nM.
Turning to `COc1ccc(S(=O)(=O)N(CC(C)C)C[C@@H](O)[C@H](Cc2cc(F)cc(F)c2)NC(=O)c2ccc(C)c(Nc3nccc(-c4cccnc4)n3)c2)cc1` [Compound 5c, N-((2S,3R)-1-(3,5-difluorophenyl)-3-hydroxy-4-((N-isobutyl-4-methoxyphenyl)sulfonamido)butan-2-yl)-4-methyl-3-((4-(pyridin-3-yl)pyrimidin-2-yl)amino)benzamide], the IC50 in the experiment on HIVLAI (setting [2]) was 124 nM. The compound also registered a Ki at HIV-1 protease of 0.58 nM.
For the compound `Cc1ccc(C(=O)N[C@@H](Cc2cc(F)cc(F)c2)[C@H](O)CN(CC(C)C)S(=O)(=O)c2ccc(N)cc2)cc1Nc1nccc(-c2cccnc2)n1` [Compound 5d, N-((2S,3R)-4-((4-amino-N-isobutylphenyl)sulfonamido)-1-(3,5-difluorophenyl)-3-hydroxybutan-2-yl)-4-methyl-3-((4-(pyridin-3-yl)pyrimidin-2-yl)amino)benzamide], the IC50 in the experiment with HIVLAI (setting [2]) turned out to be 212 nM. Besides, the “reduction in antiviral activity” value with HIVLAI (over compound 5c) is recorded as 3 fold. Moreover, on HIV-1 protease, the Ki was found to be 1.92 nM.
In the case of `COc1ccc(S(=O)(=O)N(CC(C)C)C[C@@H](O)[C@H](Cc2ccccc2)NC(=O)c2ccc(C)c(Nc3nc(-c4cccnc4)cs3)c2)cc1` [Compound 5e, N-((2S,3R)-3-hydroxy-4-((N-isobutyl-4-methoxyphenyl)sulfonamido)-1-phenylbutan-2-yl)-4-methyl-3-((4-(pyridin-3-yl)thiazol-2-yl)amino)benzamide], the IC50 in the experiment with HIVLAI (setting [2]) was 390 nM. Further, at HIV-1 protease, the affinity, expressed as Ki, was 38.3 nM.
With `COc1ccc(S(=O)(=O)N(CC(C)C)C[C@@H](O)[C@H](Cc2ccccc2)NC(=O)c2cccc(Nc3nc(-c4cccnc4)cs3)c2C)cc1` [Compound 5f, N-((2S,3R)-3-hydroxy-4-((N-isobutyl-4-methoxyphenyl)sulfonamido)-1-phenylbutan-2-yl)-2-methyl-3-((4-(pyridin-3-yl)thiazol-2-yl)amino)benzamide], in the experiment with HIVLAI (setting [2]), the half-maximal inhibitory concentration (IC50) was over 1000 nM. For the same compound, the “antiviral activity (in words)” value in the experiment with HIVLAI (MT-2 cells exposed to HIVLAI) was “did not exhibit any appreciable antiviral activity”. The Ki on HIV-1 protease is 19.3 nM.
Turning to `COc1ccc(S(=O)(=O)N(CC(C)C)C[C@@H](O)[C@H](Cc2ccccc2)NC(=O)c2cc(C)cc(Nc3nc(-c4cccnc4)cs3)c2)cc1` [Compound 5g, N-((2S,3R)-3-hydroxy-4-((N-isobutyl-4-methoxyphenyl)sulfonamido)-1-phenylbutan-2-yl)-3-methyl-5-((4-(pyridin-3-yl)thiazol-2-yl)amino)benzamide], in the experiment with HIVLAI (setting [2]), the IC50 was over 1000 nM. On HIV-1 protease, this compound had a Ki of 185 nM.
For the compound `COc1ccc(S(=O)(=O)N(CC(C)C)C[C@@H](O)[C@H](Cc2ccccc2)NC(=O)c2cc(Nc3nc(-c4cccnc4)cs3)ccc2C)cc1` [Compound 5h, N-((2S,3R)-3-hydroxy-4-((N-isobutyl-4-methoxyphenyl)sulfonamido)-1-phenylbutan-2-yl)-2-methyl-5-((4-(pyridin-3-yl)thiazol-2-yl)amino)benzamide], in the experiment on HIVLAI (setting [2]), the IC50 is 580 nM. For the same compound, the affinity at HIV-1 protease, expressed as Ki, was 8.7 nM.
As to `COc1ccc(S(=O)(=O)N(CC(C)C)C[C@@H](O)[C@H](Cc2ccccc2)NC(=O)c2ccc(C)c(Nc3nc(-c4cccnc4)cs3)c2C)cc1` [Compound 5i, N-((2S,3R)-3-hydroxy-4-((N-isobutyl-4-methoxyphenyl)sulfonamido)-1-phenylbutan-2-yl)-2,4-dimethyl-3-((4-(pyridin-3-yl)thiazol-2-yl)amino)benzamide], the IC50 in the experiment on HIVLAI (setting [2]) was 510 nM.
Take `COc1ccc(S(=O)(=O)N(CC(C)C)C[C@@H](O)[C@H](Cc2ccccc2)NC(=O)c2ccc(C)c(Nc3nc(C)cs3)c2)cc1` [Compound 5j, N-((2S,3R)-3-hydroxy-4-((N-isobutyl-4-methoxyphenyl)sulfonamido)-1-phenylbutan-2-yl)-4-methyl-3-((4-methylthiazol-2-yl)amino)benzamide]: the IC50 in the experiment on HIVLAI (Human immunodeficiency virus 1, MT2) is over 1000 nM. For the same compound, the “antiviral activity (in words)” value in the experiment with HIVLAI (MT-2 cells exposed to HIVLAI) was “did not show any appreciable antiviral activity”. In addition, the Ki on HIV-1 protease was 26 nM and 26.5 nM.
As to `COc1ccc(S(=O)(=O)N(CC(C)C)C[C@@H](O)[C@H](Cc2ccccc2)NC(=O)c2cccc(Nc3nc(C)cs3)c2C)cc1` [Compound 5k, N-((2S,3R)-3-hydroxy-4-((N-isobutyl-4-methoxyphenyl)sulfonamido)-1-phenylbutan-2-yl)-2-methyl-3-((4-methylthiazol-2-yl)amino)benzamide], the IC50 in the experiment with HIVLAI (setting [3]) is over 1000 nM. Besides, the Ki at HIV-1 protease is 71.9 nM.
`COc1ccc(S(=O)(=O)N(CC(C)C)C[C@@H](O)[C@H](Cc2ccccc2)NC(=O)c2cc(C)cc(Nc3nc(C)cs3)c2)cc1` [Compound 5l, N-((2S,3R)-3-hydroxy-4-((N-isobutyl-4-methoxyphenyl)sulfonamido)-1-phenylbutan-2-yl)-3-methyl-5-((4-methylthiazol-2-yl)amino)benzamide]: the IC50 in the experiment with HIVLAI (setting [3]) was over 1000 nM. The Ki at HIV-1 protease was determined as 80 nM.
Regarding `COc1ccc(S(=O)(=O)N(CC(C)C)C[C@@H](O)[C@H](Cc2ccccc2)NC(=O)c2cc(Nc3nc(C)cs3)ccc2C)cc1` [Compound 5m, N-((2S,3R)-3-hydroxy-4-((N-isobutyl-4-methoxyphenyl)sulfonamido)-1-phenylbutan-2-yl)-2-methyl-5-((4-methylthiazol-2-yl)amino)benzamide], the IC50 in the experiment with HIVLAI (setting [3]) is over 1000 nM. Besides, at HIV-1 protease, the Ki came out at 75.9 nM.
`COc1ccc(S(=O)(=O)N(CC(C)C)C[C@@H](O)[C@H](Cc2ccccc2)NC(=O)c2ccc(C)c(Nc3nc(C(F)(F)F)cs3)c2)cc1` [Compound 5n, N-((2S,3R)-3-hydroxy-4-((N-isobutyl-4-methoxyphenyl)sulfonamido)-1-phenylbutan-2-yl)-4-methyl-3-((4-(trifluoromethyl)thiazol-2-yl)amino)benzamide]: in the experiment with HIVLAI (setting [3]), the IC50 was over 1000 nM. At HIV-1 protease, the affinity, expressed as Ki, was 60.3 nM.
The like results for `COc1ccc(S(=O)(=O)N(CC(C)C)C[C@@H](O)[C@H](Cc2ccccc2)NC(=O)c2cccc(Nc3nc(C(F)(F)F)cs3)c2C)cc1` [Compound 5o, N-((2S,3R)-3-hydroxy-4-((N-isobutyl-4-methoxyphenyl)sulfonamido)-1-phenylbutan-2-yl)-2-methyl-3-((4-(trifluoromethyl)thiazol-2-yl)amino)benzamide] were, in that order, over 1000 nM and 72 nM.
Consider `COCc1csc(Nc2ccc(C)c(C(=O)N[C@@H](Cc3ccccc3)[C@H](O)CN(CC(C)C)S(=O)(=O)c3ccc(OC)cc3)c2)n1` [Compound 5p, N-((2S,3R)-3-hydroxy-4-((N-isobutyl-4-methoxyphenyl)sulfonamido)-1-phenylbutan-2-yl)-5-((4-(methoxymethyl)thiazol-2-yl)amino)-2-methylbenzamide], for which the IC50 in the experiment with HIVLAI (setting [2]) and with HIVLAI (setting [3]) was 630 nM each time. Also, at HIV-1 protease, the affinity, expressed as Ki, was 18 nM.
